Measured values as given in EP0046349A1, “Clavulanic acid derivatives, their preparation and use” (BEECHAM GROUP PLC, priority 1980, dated 1982).

How the values were obtained:
Assay type in all cases: cell-based
Staph. aureus Russell [1] = assay: standard antibacterial test; parameters: unit not given here; details: compound alone
Text: IN A STANDARD ANTIBACTERIAL TEST, THE FOLLOWING DATA WERE OBTAINED

Staph. aureus Russell [2] = assay: standard MIC synergy test
Text: (§1) […]

Escherichia coli JT39 = assay: standard MIC synergy test
Text: as §1

Klebsiella Aerogenes E70 = assay: standard MIC synergy test; details: Amoxycillin alone, no inhibitor (comparison); unit assumed
Text: as §1

[3] = Concentration of inhibitor 5.0 μg/ml, MIC of amoxycillin in presence of inhibitor, 'Inhibited' = inhibitor alone inhibits growth
[4] = Concentration of inhibitor 5.0 μg/ml, MIC of amoxycillin in presence of inhibitor
[5] = Concentration of inhibitor 1.0 μg/ml, MIC of amoxycillin in presence of inhibitor, 'Inhibited' = inhibitor alone inhibits growth
[6] = Amoxycillin alone, no inhibitor (comparison), unit assumed

With `CC(=NC/C=C1\O[C@@H]2CC(=O)N2[C@H]1C(=O)O)NCCCCCC(=O)O` [Example 9, Lithium 9-N-[1-(N-5'Carboxylatopentyl)aminoethylidene]amino-9-deoxyclavlanic acid] the “standard antibacterial test, Staph. Aureus Russell” value (“standard antibacterial test” below) (Staph. aureus Russell [1]) was 62.5.
With `CC(C)C(N)=NC/C=C1\O[C@@H]2CC(=O)N2[C@H]1C(=O)O` [Example 16, 9-N-(1 t-amino-2'-methylpropylidene) amino-9-deoxyclavulanic acid.] the “MIC synergy test, Staph. aureus Russell” value (Staph. aureus Russell [2]; [3]) was “Inhibited” and the “standard antibacterial test” value (Staph. aureus Russell [1]) was 4.0.
`NC(=NC/C=C1\O[C@@H]2CC(=O)N2[C@H]1C(=O)O)C1CC1` [Example 19, 9-N-(amino-cyclopropylmethylene) amino-9-deoxyclavulanic acid.] was tested, and the “MIC synergy test, Escherichia coli JT39” value (Escherichia coli JT39; [4]) was “Inhibited”, the “MIC synergy test, Staph. aureus Russell” value (Staph. aureus Russell [2]; [3]) was “Inhibited” and the “standard antibacterial test” value (Staph. aureus Russell [1]) was 4.0.
In the case of `O=C(O)[C@H]1/C(=C/CN=CN2CCCCC2)O[C@@H]2CC(=O)N21` [Example 26, 9-N-(N,N-pentamethyleneaminomethylene) amino-9-deoxyolavulanic acid.], the “MIC synergy test, Staph. aureus Russell” value (Staph. aureus Russell [2]; [5]) is reported as “Inhibited”, the “MIC synergy test, Staph. aureus Russell” value (Staph. aureus Russell [2]; [3]) is reported as “Inhibited” and the “standard antibacterial test” value (Staph. aureus Russell [1]) is reported as ≤0.5.
For `CCN(C=NC/C=C1\O[C@@H]2CC(=O)N2[C@H]1C(=O)O)CC` [Example 21, 9-N-(diethylaminomethylene) amino-9-deoxyclavulanic acid.], the “MIC synergy test, Staph. aureus Russell” value (Staph. aureus Russell [2]; [3]) was “Inhibited” and the “standard antibacterial test” value (Staph. aureus Russell [1]) was 4.0.
For `CC(=NC/C=C1\O[C@@H]2CC(=O)N2[C@H]1C(=O)O)N(C)C` [Example 22, 9-N-[1-(N,N-dimethyl)aminoethylidene] amino-9-deoxyclavulanic acid.], the “MIC synergy test, Escherichia coli JT39” value (Escherichia coli JT39; [4]) was “Inhibited”, the “MIC synergy test, Staph. aureus Russell” value (Staph. aureus Russell [2]; [5]) was “Inhibited” and the “MIC synergy test, Staph. aureus Russell” value (Staph. aureus Russell [2]; [3]) was “Inhibited”. For the same molecule, the “standard antibacterial test” value (Staph. aureus Russell [1]) was ≤0.5.
In the case of `CNC(C)=NC/C=C1\O[C@@H]2CC(=O)N2[C@H]1C(=O)O` [Example 24, 9-N-[l-(N-methyl)aminoethylidene] amino-9-deoxyclavulanic acid.], the “MIC synergy test, Staph. aureus Russell” value (Staph. aureus Russell [2]; [3]) is reported as “Inhibited” and the “standard antibacterial test” value (Staph. aureus Russell [1]) is reported as 8.0.
With `CCC(N)=NC/C=C1\O[C@@H]2CC(=O)N2[C@H]1C(=O)O` [Example 14, 9-N-(1'aminopropylidene)amino-9-deoxyclavulanic acid] the “MIC synergy test, Staph. aureus Russell” value (Staph. aureus Russell [2]; [3]) was “Inhibited” and the “standard antibacterial test” value (Staph. aureus Russell [1]) was 4.0.
For `O=C(O)[C@H]1/C(=C/CN=C2CCCN2)O[C@@H]2CC(=O)N21` [Example 30, 9-N-(2-pyrrolidylidene) amino-9-deoxyclavulanic acid.], the “MIC synergy test, Staph. aureus Russell” value (Staph. aureus Russell [2]; [5]) was “Inhibited”, the “MIC synergy test, Staph. aureus Russell” value (Staph. aureus Russell [2]; [3]) was “Inhibited” and the “standard antibacterial test” value (Staph. aureus Russell [1]) was 1.0.
With `CC(=NC/C=C1\O[C@@H]2CC(=O)N2[C@H]1C(=O)O)NCC(=O)O` [Example 10, Potassium 9-N-[1-(N-Carboxylatomethyl)aminoethylidene]amino-9-deoxyclavulanic acid] the “standard antibacterial test” value (Staph. aureus Russell [1]) was 62.5.
With `NC=NC/C=C1\O[C@@H]2CC(=O)N2[C@H]1C(=O)O` [Example 5, 9-N-(aminomethylene)amino-9-deoxyclavulanic acid] the “MIC synergy test, Staph. aureus Russell” value (Staph. aureus Russell [2]; [3]) was “Inhibited” and the “standard antibacterial test” value (Staph. aureus Russell [1]) was 4.0.
For `O=C(O)[C@H]1/C(=C/CN=CNCc2ccccc2)O[C@@H]2CC(=O)N21` [Example 6, 9-N-(N-benzylaminomethylene)amino-9-deoxyclavulanic acid], the “MIC synergy test, Staph. aureus Russell” value (Staph. aureus Russell [2]; [5]) was “Inhibited”, the “MIC synergy test, Staph. aureus Russell” value (Staph. aureus Russell [2]; [3]) was “Inhibited” and the “standard antibacterial test” value (Staph. aureus Russell [1]) was 2.0.
With `CCCCC(N)=NC/C=C1\O[C@@H]2CC(=O)N2[C@H]1C(=O)O` [Example 18, 9-N-(l-aminopentylidene) amino-9-deoxyclavulanic acid.] the “MIC synergy test, Staph. aureus Russell” value (Staph. aureus Russell [2]; [3]) was “Inhibited” and the “standard antibacterial test” value (Staph. aureus Russell [1]) was 2.0.
Molecule `CC1(C)S[C@@H]2[C@H](NC(=O)[C@H](N)c3ccc(O)cc3)C(=O)N2[C@H]1C(=O)O` [Amoxy-cillin, amoxycillin, reference compound] has an MIC synergy test, Escherichia coli JT39 (Escherichia coli JT39; [6]) of 2000 µg/mL, an MIC synergy test, Klebsiella Aerogenes E70 (Klebsiella Aerogenes E70) of 1000 µg/mL and an MIC synergy test, Staph. aureus Russell (Staph. aureus Russell [2]; [6]) of 500 µg/mL.
`O=C(O)[C@H]1/C(=C/CN=CN2CCCCCC2)O[C@@H]2CC(=O)N21` [Example 27, 9-N-(N,N-hexamethyleneaminomethylene) aimno-9-deoxyclavulanic acid.] was tested, and the “MIC synergy test, Staph. aureus Russell” value (Staph. aureus Russell [2]; [5]) was “Inhibited”, the “MIC synergy test, Staph. aureus Russell” value (Staph. aureus Russell [2]; [3]) was “Inhibited” and the “standard antibacterial test” value (Staph. aureus Russell [1]) was 1.0.
`CC(=NC/C=C1\O[C@@H]2CC(=O)N2[C@H]1C(=O)O)NCC(C)C` [Example 3, 9-N-[1'-(N-isobutyl)aminoethylidene]amino-9-deoxyclavulanic acid] was tested, and the “MIC synergy test, Staph. aureus Russell” value (Staph. aureus Russell [2]; [3]) was “Inhibited” and the “standard antibacterial test” value (Staph. aureus Russell [1]) was 4.0.
For `CCNC(C)=NC/C=C1\O[C@@H]2CC(=O)N2[C@H]1C(=O)O` [Example 25], the “MIC synergy test, Staph. aureus Russell” value (Staph. aureus Russell [2]; [3]) was “Inhibited” and the “standard antibacterial test” value (Staph. aureus Russell [1]) was 4.0.
`CSCC(N)=NC/C=C1\O[C@@H]2CC(=O)N2[C@H]1C(=O)O` [Example 28, 9-N-(1'-amino-2'-methylthioethylidene) amino-9-deoxyclavulanic acid.] was tested, and the “standard antibacterial test” value (Staph. aureus Russell [1]) was 2.0.
With `COCCC(N)=NC/C=C1\O[C@@H]2CC(=O)N2[C@H]1C(=O)O` [Example 13, 9-N-(1'-amino-3'-methoxypropylidene)amino-9-deoxyclavulanic acid] the “standard antibacterial test” value (Staph. aureus Russell [1]) was 16.0.
With `O=C(O)[C@H]1/C(=C/CN=C2CCCCN2)O[C@@H]2CC(=O)N21` [Example 31, 9-N-(2-piperidylidene) amino-9-deoxyclavulanic acid.] the “MIC synergy test, Staph. aureus Russell” value (Staph. aureus Russell [2]; [5]) was “Inhibited”, the “MIC synergy test, Staph. aureus Russell” value (Staph. aureus Russell [2]; [3]) was “Inhibited” and the “standard antibacterial test” value (Staph. aureus Russell [1]) was 1.0.
`CNC(=NC/C=C1\O[C@@H]2CC(=O)N2[C@H]1C(=O)O)c1ccccc1` [Example 23] was tested, and the “MIC synergy test, Staph. aureus Russell” value (Staph. aureus Russell [2]; [5]) was “Inhibited”, the “MIC synergy test, Staph. aureus Russell” value (Staph. aureus Russell [2]; [3]) was “Inhibited” and the “standard antibacterial test” value (Staph. aureus Russell [1]) was 2.0.
With `CC(N)=NC/C=C1\O[C@@H]2CC(=O)N2[C@H]1C(=O)O` [Example 2, 9-N-(1'-aminoethylidene)amino-9-deoxyclavulanic acid] the “MIC synergy test, Staph. aureus Russell” value (Staph. aureus Russell [2]; [3]) was “Inhibited” and the “standard antibacterial test” value (Staph. aureus Russell [1]) was 16.0.
For `CNC=NC/C=C1\O[C@@H]2CC(=O)N2[C@H]1C(=O)O` [Example 11, 9-N-(N-methylaminomethylene)amino-9-deoxyclavulanic acid], the “MIC synergy test, Staph. aureus Russell” value (Staph. aureus Russell [2]; [3]) was “Inhibited” and the “standard antibacterial test” value (Staph. aureus Russell [1]) was 4.0.
With `NC(=NC/C=C1\O[C@@H]2CC(=O)N2[C@H]1C(=O)O)c1ccccc1` [Example 7, 9 N-(1-aminobenzylidene)amino-9-deoxyclavulanic acid] the “MIC synergy test, Staph. aureus Russell” value (Staph. aureus Russell [2]; [3]) was “Inhibited” and the “standard antibacterial test” value (Staph. aureus Russell [1]) was 8.0.
In the case of `NC(Cc1cccs1)=NC/C=C1\O[C@@H]2CC(=O)N2[C@H]1C(=O)O` [Example 29, 9-N-(1-amino-2-[2'-thienyl]ethylidene) amino-9-deoxyclavulanic acid.], the “standard antibacterial test” value (Staph. aureus Russell [1]) is reported as 2.0.
For `NC(=NC/C=C1\O[C@@H]2CC(=O)N2[C@H]1C(=O)O)C1CCC1` [Example 20, 9-N-(amino-cyclobutylmethylene) amino-9-deoxyclavulanic acid.], the “MIC synergy test, Escherichia coli JT39” value (Escherichia coli JT39; [4]) was “Inhibited”, the “MIC synergy test, Staph. aureus Russell” value (Staph. aureus Russell [2]; [3]) was “Inhibited” and the “standard antibacterial test” value (Staph. aureus Russell [1]) was 4.0.
`CC(=NC/C=C1\O[C@@H]2CC(=O)N2[C@H]1C(=O)O)NCCCCCC(=O)OCc1ccccc1` [Example 8, 9-N-[1(N-5-benzyloxycarbonylpentyl)aminoethylidene]amino-9-deoxyclavulanic acid] was tested, and the “MIC synergy test, Staph. aureus Russell” value (Staph. aureus Russell [2]; [3]) was “Inhibited” and the “standard antibacterial test” value (Staph. aureus Russell [1]) was 8.0.
In the case of `CN(C)C=NC/C=C1\O[C@@H]2CC(=O)N2[C@H]1C(=O)O` [Example 1, 9-N-(Dimethylaminomethylene) amino-9-deoxyclavulanic acid], the “MIC synergy test, Staph. aureus Russell” value (Staph. aureus Russell [2]; [3]) is reported as “Inhibited” and the “standard antibacterial test” value (Staph. aureus Russell [1]) is reported as 4.0.
For `CCCC(N)=NC/C=C1\O[C@@H]2CC(=O)N2[C@H]1C(=O)O` [Example 12, 9-N-(1-aminobutylidene)amino-9-deoxyclavulanic acid], the “MIC synergy test, Staph. aureus Russell” value (Staph. aureus Russell [2]; [3]) was “Inhibited” and the “standard antibacterial test” value (Staph. aureus Russell [1]) was 4.0.
`CC(=NC/C=C1\O[C@@H]2CC(=O)N2[C@H]1C(=O)O)NCc1ccccc1` [Example 4, 9-N-[1-(N-benzyl)aminoethylidene]amino-9-deoxyclavulanic acid] was tested, and the “MIC synergy test, Staph. aureus Russell” value (Staph. aureus Russell [2]; [3]) was “Inhibited” and the “standard antibacterial test” value (Staph. aureus Russell [1]) was 2.0.
